Our source for the IC50 values is patent US20220395496A1 (Hoffmann-La Roche Inc., priority 2019, published 2022).

By IC50 is commonly meant the concentration at which inhibition is half-maximal. Low readings indicate greater potency in that assay, high ones weaker potency in that assay.

The target of the test is T1, human TLR9 (Homo sapiens, UniProt Q9NR96).
T1 sequence (Q9NR96 26-1032): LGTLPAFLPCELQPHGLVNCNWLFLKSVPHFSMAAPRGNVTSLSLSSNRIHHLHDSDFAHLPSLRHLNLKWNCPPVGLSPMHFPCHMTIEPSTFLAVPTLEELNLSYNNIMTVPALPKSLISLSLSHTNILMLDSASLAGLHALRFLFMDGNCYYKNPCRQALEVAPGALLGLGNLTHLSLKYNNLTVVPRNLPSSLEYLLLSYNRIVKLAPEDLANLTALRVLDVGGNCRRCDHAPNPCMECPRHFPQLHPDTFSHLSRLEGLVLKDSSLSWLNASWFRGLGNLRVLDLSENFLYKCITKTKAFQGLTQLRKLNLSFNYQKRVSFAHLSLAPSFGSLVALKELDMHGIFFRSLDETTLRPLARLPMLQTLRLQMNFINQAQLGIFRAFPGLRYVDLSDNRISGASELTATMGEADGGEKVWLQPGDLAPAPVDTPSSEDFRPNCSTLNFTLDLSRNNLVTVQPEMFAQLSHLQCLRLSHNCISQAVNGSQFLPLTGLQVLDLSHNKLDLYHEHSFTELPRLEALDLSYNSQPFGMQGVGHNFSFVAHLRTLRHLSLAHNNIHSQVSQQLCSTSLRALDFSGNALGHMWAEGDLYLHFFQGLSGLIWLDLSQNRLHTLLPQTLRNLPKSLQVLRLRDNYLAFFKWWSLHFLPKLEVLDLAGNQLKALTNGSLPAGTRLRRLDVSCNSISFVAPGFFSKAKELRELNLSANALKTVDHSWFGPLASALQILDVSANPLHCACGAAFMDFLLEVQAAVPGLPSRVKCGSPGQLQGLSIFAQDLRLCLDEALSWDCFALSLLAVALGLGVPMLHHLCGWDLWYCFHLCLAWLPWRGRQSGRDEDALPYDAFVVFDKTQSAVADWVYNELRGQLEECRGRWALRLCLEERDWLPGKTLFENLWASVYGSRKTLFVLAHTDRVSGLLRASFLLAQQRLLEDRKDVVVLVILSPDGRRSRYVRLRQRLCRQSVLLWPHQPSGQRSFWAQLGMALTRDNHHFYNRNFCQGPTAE
The test can be described thus: HEK293-Blue-hTLR-9 cells assay (SEAP reporter, ODN2006 stimulation). Type of test: cell-based. The following applies: HEK293-Blue-hTLR9 cells, ODN2006, 20 hrs. On the procedure: The following tests were carried out in order to determine the activity of the compounds of this invention in HEK293-Blue-hTLR-7/8/9 cells assay.
HEK293-Blue-hTLR-9 Cells Assay:
A stable HEK293-Blue-hTLR-9 cell line was purchased from InvivoGen (Cat. #: hkb-htlr9, San Diego, Calif., USA). These cells were originally designed for studying the stimulation of human TLR9 by monitoring the activation of NF-κB. A SEAP (secreted embryonic alkaline phosphatase) reporter gene was placed under the control of the IFN-β minimal promoter fused to five NF-κB and AP-1-binding sites. The SEAP was induced by activating NF-κB and AP-1 via stimulating HEK-Blue hTLR9 cells with TLR9 ligands. Therefore the reporter expression was declined by TLR9 antagonist under the stimulation of a ligand, such as ODN2006 (Cat. #: tlr1-2006-1, Invivogen, San Diego, Calif., USA), for incubation of 20 hrs. The cell culture supernatant SEAP reporter activity was determined using QUANTI-Blue™ kit (Cat. #: rep-qb1, Invivogen, San Diego, Calif., USA) at a wavelength of 640 nm, a detection medium that turns purple or blue in the presence of alkaline phosphatase.
HEK293-Blue-hTLR9 cells were incubated at a density of 250,000˜450,000 cells/mL in a volume of 170 μL in a 96-well plate in Dulbecco's Modified Eagle's medium (DMEM) containing 4.5 g/L glucose, 50 U/mL penicillin, […], 2 mM L-glutamine, 10% (v/v) heat-inactivated fetal bovine serum with addition of 20 μL test compound in a serial dilution in the presence of final DMSO at 1% and 10 μL of 20 uM ODN2006 in above DMEM, perform incubation under 37° C. in a CO2 incubator for 20 hrs. Then 20 μL of the supernatant from each well was incubated with 180 μL Quanti-blue substrate solution at 37° C. for 2 hrs and the absorbance was read at 620˜655 nm using a spectrophotometer. The signalling pathway that TLR9 activation leads to downstream NF-κB activation has been widely accepted, and therefore similar reporter assay was modified for evaluating TLR9 antagonist.
`C[C@H]1C[C@@H](NCc2ccc3c(c2)CCNC3)CN(c2ccc(C#N)c3ncccc23)C1` [Example 11, 5-[(3S,5R)-3-methyl-5-(1,2,3,4-tetrahydroisoquinolin-6-ylmethylamino)-1-piperidyl]quinoline-8-carbonitrile]: 82 nM corresponded to half-maximal inhibition (IC50).

`C[C@H]1C[C@@H](NCc2ccc3c(n2)CCNC3)CN(c2ccc(C#N)c3ncccc23)C1` [Example 30, 5-[(3S,5R)-3-methyl-5-(5,6,7,8-tetrahydro-1,6-naphthyridin-2-ylmethylamino)-1-piperidyl]quinoline-8-carbonitrile] yielded an IC50 of 33 nM.

Consider `C[C@H]1C[C@@H](NCc2ccc(N3CCN(C)CC3)cc2)CN(c2ccc(C#N)c3ncccc23)C1` [Example 7, 5-[(3S,5R)-3-methyl-5-[[4-(4-methylpiperazin-1-yl)phenyl]methylamino]-1-piperidyl]quinoline-8-carbonitrile], for which the IC50 stood at 69 nM.

With `C[C@H]1C[C@@H](NCc2ncc(N3CCNCC3)cn2)CN(c2ccc(C#N)c3ncccc23)C1` [Example 25, 5-[(3S,5R)-3-methyl-5-[(5-piperazin-1-ylpyrimidin-2-yl)methylamino]-1-piperidyl]quinoline-8-carbonitrile], the concentration for half-maximal inhibition (IC50) is 61 nM.

`C[C@H]1C[C@@H](NCc2cnc(N3CCN[C@@H](C)C3)nc2)CN(c2ccc(C#N)c3ncccc23)C1` [Example 29, 5-[(3S,5R)-3-methyl-5-[[2-[(3S)-3-methylpiperazin-1-yl]pyrimidin-5-yl]methylamino]-1-piperidyl]quinoline-8-carbonitrile]: the IC50 is 32 nM.

Molecule `C[C@H]1C[C@@H](NCc2cnc(N3CCNCC3)nc2)CN(c2ccc(C#N)c3ncccc23)C1` [Example 17, 5-[(3S,5R)-3-methyl-5-[(2-piperazin-1-ylpyrimidin-5-yl)methylamino]-1-piperidyl]quinoline-8-carbonitrile] came in with a 50% inhibitory concentration (IC50) of 60 nM.

`C[C@H]1C[C@@H](NCc2ccc(N3CCC(N)C3)cc2)CN(c2ccc(C#N)c3ncccc23)C1` (stereo partly drawn) [Example 13, 5-[(3R,5S)-3-[[4-(3-aminopyrrolidin-1-yl)phenyl]methylamino]-5-methyl-1-piperidyl]quinoline-8-carbonitrile] returned a half-inhibitory concentration (IC50) of 163 nM.

Take `C[C@H]1C[C@@H](NCc2cnc(N3CCN[C@H](C)C3)nc2)CN(c2ccc(C#N)c3ncccc23)C1` [Example 28, 5-[(3S,5R)-3-methyl-5-[[2-[(3R)-3-methylpiperazin-1-yl]pyrimidin-5-yl]methylamino]-1-piperidyl]quinoline-8-carbonitrile]: the concentration for half-maximal inhibition (IC50) was determined as 48 nM.

On to `C[C@H]1C[C@@H](NCc2ccc(N3CCNCC3)cc2)CN(c2ccc(C#N)c3nccnc23)C1` [Example 3, 8-[(3S,5R)-3-methyl-5-[(4-piperazin-1-ylphenyl)methylamino]-1-piperidyl]quinoxaline-5-carbonitrile], for which the midpoint of inhibition, the IC50, lay at 77 nM.

In the case of `Cc1cc(-c2ccc(CN[C@@H]3C[C@H](C)CN(c4ccc(C#N)c5ncccc45)C3)cc2)cc(C)n1` [Example 15, 5-[(3R,5S)-3-[[4-(2,6-dimethyl-4-pyridyl)phenyl]methylamino]-5-methyl-1-piperidyl]quinoline-8-carbonitrile], half-maximal inhibition (IC50) was put at 126 nM.

In turn, `C[C@H]1C[C@@H](NCc2ccc(N3CCNCC3)nc2)CN(c2ccc(C#N)c3ncccc23)C1` [Example 10] had an IC50 of 68 nM.

With `C[C@H]1C[C@@H](N(C)Cc2ccc(N3CCNCC3)cc2)CN(c2ccc(C#N)c3ncccc23)C1` [Example 9, 5-[(3S,5R)-3-methyl-5-[methyl-[(4-piperazin-1-ylphenyl)methyl]amino]-1-piperidyl]quinoline-8-carbonitrile], the IC50 came out at 95 nM.

`C[C@H]1C[C@@H](N2Cc3ccc(N4CCNCC4)cc3C2)CN(c2ccc(C#N)c3ncccc23)C1` [Example 12, 5-[(3S,5R)-3-methyl-5-(5-piperazin-1-ylisoindolin-2-yl)-1-piperidyl]quinoline-8-carbonitrile] registered a half-inhibitory concentration (IC50) of 73 nM.
